“And” between values parts separate entries of the source, which are not always exact repeats. Equal values may be shown once. Read-outs that look alike come from different tables or passages of the source. Bridge positions count the residues as written; N and C are the ends. Square brackets hold non-standard residues; d marks the D form. Peptide text beside a SMILES is read from it. dOrn = NCCC[C@@H](N)C(=O)O
Experiments:
guinea pig ileum [1] = assay type: cell-based
Source text: […]. […] […]

guinea pig ileum [2] = settings: for overall agonist character: conclusion of Example 7
κ receptors = κ receptors (Homo sapiens, UniProt P41145); settings: cited from earlier work; for Ki: values obtained from (7) or (20), read-out: Receptor Binding Ki κ
Chain of κ receptors (P41145 whole entry): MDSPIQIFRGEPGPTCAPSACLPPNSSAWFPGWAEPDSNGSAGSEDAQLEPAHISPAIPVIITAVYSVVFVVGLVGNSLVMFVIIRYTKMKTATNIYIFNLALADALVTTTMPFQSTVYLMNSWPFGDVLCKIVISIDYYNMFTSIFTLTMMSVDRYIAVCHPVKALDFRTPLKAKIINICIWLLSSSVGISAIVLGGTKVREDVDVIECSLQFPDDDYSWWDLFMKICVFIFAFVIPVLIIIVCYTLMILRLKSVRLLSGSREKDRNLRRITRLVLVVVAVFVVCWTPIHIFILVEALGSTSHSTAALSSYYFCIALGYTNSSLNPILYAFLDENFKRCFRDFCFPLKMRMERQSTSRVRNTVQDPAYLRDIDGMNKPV

mice [3] = settings: from reference (24); cited from earlier work
mice [4] = test system: mice
mice [5] = settings: it injection
μ receptors [6] = biological target: T1, μ receptors (Homo sapiens, UniProt P35372); test: Binding to μ opiate receptors by inhibition of [3H]-DAMGO
T1 sequence (P35372 whole entry): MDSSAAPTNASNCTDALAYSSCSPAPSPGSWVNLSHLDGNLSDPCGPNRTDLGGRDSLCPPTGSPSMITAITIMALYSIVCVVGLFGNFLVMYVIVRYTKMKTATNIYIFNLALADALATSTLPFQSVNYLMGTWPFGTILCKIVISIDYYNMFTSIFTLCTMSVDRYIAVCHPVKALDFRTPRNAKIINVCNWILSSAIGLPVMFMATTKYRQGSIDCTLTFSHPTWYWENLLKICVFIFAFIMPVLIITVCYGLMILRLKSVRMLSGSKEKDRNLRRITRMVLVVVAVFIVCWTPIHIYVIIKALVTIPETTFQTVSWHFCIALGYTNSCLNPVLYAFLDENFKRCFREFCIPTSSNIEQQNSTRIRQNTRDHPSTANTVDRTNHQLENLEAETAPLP
Description: (§1) The relative affinity and selectivity for the μ receptor over the δ and κ receptors of the synthesized peptides were tested and compared.

mice [7] = test: Analgesia in mice after IV injection; assay type: in vivo
δ receptors [8] = biological target: T2, δ receptors (Homo sapiens, UniProt P41143); test: Binding to δ opiate receptors by inhibition of 3H-pCl-DPDPE; settings: FIG. 1 set of 20 pin-synthesized peptides
T2 sequence (P41143 whole entry): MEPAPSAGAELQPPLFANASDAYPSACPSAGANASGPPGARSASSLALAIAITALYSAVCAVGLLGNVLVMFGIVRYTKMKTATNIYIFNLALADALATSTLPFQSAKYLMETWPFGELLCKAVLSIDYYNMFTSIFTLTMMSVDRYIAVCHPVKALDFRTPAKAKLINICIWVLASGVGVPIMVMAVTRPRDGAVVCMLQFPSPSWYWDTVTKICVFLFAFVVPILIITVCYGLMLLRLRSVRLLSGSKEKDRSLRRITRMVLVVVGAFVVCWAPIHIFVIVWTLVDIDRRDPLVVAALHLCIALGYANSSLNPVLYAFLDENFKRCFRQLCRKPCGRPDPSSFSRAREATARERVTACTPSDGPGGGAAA
Description: as §1

μ receptors [9] = biological target: T1, μ receptors; settings: values obtained from (7) or (20); read-out: Receptor Binding Ki μ; cited from earlier work
δ receptors [10] = biological target: T2, δ receptors; settings: cited from earlier work
[11] = mean±SEM, read-out: IC50 inhibiting electrically-induced contractions of the guinea pig ileum
[12] = untreated guinea pig ileum, read-out: agonist activity IC50 in the untreated ileum
[13] = methods of Example 3, route not given

C[C@@H](NC(=O)[C@@H](N)Cc1ccc(O)cc1)C(=O)NCC(=O)N(C)[C@@H](Cc1ccccc1)C(=O)NCCO [DAMGO, reference compound]
IC50 (guinea pig ileum [1]; [11]): 0.0068 ± 0.0008 µM
inhibition of electrically-induced contractions (guinea pig ileum [2]; 0.3 μM DAMGO, ileum treated with 20 nM B-CNA): 40%

CSCC[C@H](NC(=O)[C@H](Cc1ccccc1)NC(=O)CNC(=O)CNC(=O)[C@@H](N)Cc1ccc(O)cc1)C(=O)O [Met-Enkephalin]
Ki (κ receptors): 4.44 µM
ED50 analgesia (mice [3]): 75 µg
duration of analgesic effects (mice [3]): less than 10 min

NC(=O)[C@H](Cc1ccccc1)NC(=O)[C@H](Cc1c[nH]c2ccccc12)NC(=O)[C@@H]1CCCN1C(=O)[C@@H](N)Cc1ccc(O)cc1 [SEQ ID NO:1, H-Tyr-Pro-Trp-Phe-NH2]
IC50 (guinea pig ileum [1]; [11]): 0.0036 ± 0.0003 µM
effect of antagonists on the peptide's effect in guinea pig ileum (guinea pig ileum [1]; naloxone 0.5 μM and CTOP 0.5 μM, applied 1 min before or after, not by nor-binaltorphimine 20 nM): blocked and reversed
animals still analgesic 1 hr after injection (mice [4]; mice, 10-20 μg of the peptide, 1 hr): About half
effect of antagonists on analgesia induced by 10 μg of the peptide (mice [4]; naloxone 1 mg/kg sc, β-funaltrexamine 40 mg/kg 24 h pretreatment): reversed
ED50 analgesia (mice [5]): 0.8 µg

NC(=O)[C@H](Cc1ccccc1)NC(=O)[C@H](Cc1ccccc1)NC(=O)[C@@H]1CCCN1C(=O)[C@@H](N)Cc1ccc(O)cc1 [SEQ ID NO:2, H-Tyr-Pro-Phe-Phe-NH2]
IC50 (guinea pig ileum [1]; [11]): 0.004 ± 0.0004 µM
ED50 analgesia (mice [4]; mice, icv injection): 8.4 µg

N[C@@H](Cc1ccc(O)cc1)C(=O)N1CCC[C@H]1C(=O)N[C@@H](Cc1c[nH]c2ccccc12)C(=O)N[C@@H](Cc1ccccc1)C(=O)O [SEQ ID NO:3, H-Tyr-Pro-Trp-Phe-OH]
IC50 (guinea pig ileum [1]; [12]): 5 µM
activity after treatment with 20 nM beta-chlornaltrexamine (guinea pig ileum [2]; B-CNA treated ileum): antagonist activity
overall agonist character (guinea pig ileum [2]): partial agonist activity
inhibition of contractions by DAMGO after pretreatment with the peptide (guinea pig ileum [2]; peptide 20 μM 1 minute before 0.3 μM DAMGO, B-CNA treated ileum): 25%

N[C@@H](Cc1ccc(O)cc1)C(=O)N1CCC[C@H]1C(=O)N[C@@H](Cc1ccccc1)C(=O)N[C@@H](Cc1ccccc1)C(=O)O [SEQ ID NO:4, H-Tyr-Pro-Phe-Phe-OH]
IC50 (guinea pig ileum [1]; [12]): 20 µM
activity after treatment with 20 nM beta-chlornaltrexamine (guinea pig ileum [2]; B-CNA treated ileum): antagonist activity
overall agonist character (guinea pig ileum [2]): partial agonist activity

N[C@@H](Cc1ccc(O)cc1)C(=O)N[C@@H]1CCCCNC(=O)[C@H](Cc2ccccc2)NC(=O)[C@H](Cc2c[nH]c3ccccc23)NC1=O [SEQ ID NO:13, H-Tyr-c-[D-Lys-Trp-Phe]] (H-Y[dK]WF; lactam 2-C)
μ receptor affinity higher than the peptide of SEQ ID NO:1 (μ receptors [6]): about 15 fold
IC50 in the guinea pig ileum assay (in words) (guinea pig ileum [1]): subnanomolar
potency in the guinea pig ileum assay greater than SEQ ID NO:1 (guinea pig ileum [1]): about 4 fold
analgesic potency IC50 (mice [4]; [13]): 0.3 µg
analgesic potency greater than SEQ ID NO:1 (mice [4]; [13]): about 10 fold
ED50 analgesia (mice [7]): 0.16 µmol/kg

N[C@@H](Cc1ccc(O)cc1)C(=O)N[C@@H]1CCCNC(=O)[C@H](Cc2ccccc2)NC(=O)[C@H](Cc2c[nH]c3ccccc23)NC1=O [SEQ ID NO:15, H-Tyr-c-[D-Orn-Trp-Phe]] (H-Y[dOrn]WF; lactam 2-C)
μ receptor affinity higher than the peptide of SEQ ID NO:1 (μ receptors [6]): about 4 fold

NC(=O)CNC(=O)[C@H](Cc1c[nH]c2ccccc12)NC(=O)[C@@H]1CCCN1C(=O)[C@@H](N)Cc1ccc(O)cc1 [Tyr-W-MIF-1, Tyr-Pro-Trp-Gly-NH2] (H-YPWG-NH2)
selectivity for μ over κ receptors (κ receptors; background, reference (7)): > 300 fold
Ki (κ receptors): 22.3 µM
Binding Selectivity κ/μ (κ receptors; values obtained from (7)): 314
Ki (μ receptors [6]): 0.085 µM
selectivity for μ over δ receptors (δ Ki/μ Ki) (δ receptors [8]): 240 fold
Ki (μ receptors [9]): 0.0709 µM and 0.07 µM
selectivity for μ over δ receptors (δ receptors [10]; background, reference (7)): > 200 fold
Ki (δ receptors [10]; values obtained from (7) or (20), read-out: Receptor Binding Ki δ): 15.5 µM
Binding Selectivity δ/μ (δ receptors [10]; values obtained from (7)): 219

CN1CC[C@]23c4c5ccc(O)c4O[C@H]2[C@@H](O)C=C[C@H]3[C@H]1C5 [morphine, reference compound]
ED50 (mice [7]; Mus musculus): 0.3 µmol/kg
